Where two headings read alike, the source gives them in different places.
What was measured:
[1] = biological target: T1, Recombinant human NK3 (hNK3) receptor (Homo sapiens, UniProt P29371); experiment: NK3 receptor binding, [3H]SR142801 displacement, membrane preparations
T1 construct: expressed in transfected cells
T1 sequence (P29371 1-465): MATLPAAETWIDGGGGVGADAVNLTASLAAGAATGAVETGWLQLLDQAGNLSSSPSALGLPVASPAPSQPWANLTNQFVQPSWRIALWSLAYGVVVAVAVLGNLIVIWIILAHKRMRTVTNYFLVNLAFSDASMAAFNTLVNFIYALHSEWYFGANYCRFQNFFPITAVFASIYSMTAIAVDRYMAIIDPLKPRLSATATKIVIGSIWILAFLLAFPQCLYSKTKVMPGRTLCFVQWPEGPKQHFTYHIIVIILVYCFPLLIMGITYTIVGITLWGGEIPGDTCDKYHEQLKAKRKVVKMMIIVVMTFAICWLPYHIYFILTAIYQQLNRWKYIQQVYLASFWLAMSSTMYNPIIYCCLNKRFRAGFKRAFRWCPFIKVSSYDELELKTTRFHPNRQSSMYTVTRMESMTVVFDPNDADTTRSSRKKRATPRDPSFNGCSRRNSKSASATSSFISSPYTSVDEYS
In short: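 Buffer: Tris-HCl 50 mM pH 7.4, BSA 0.1%, MnCl2 4 mM, phosphoramidon 1 μM. ~2.5 μg membrane/well, 90 min RT. NSB with SB222200 (10 μM). Vacuum filtration over 0.3% PEI-treated GF/C, cold Tris/BSA washes, scintillation count; duplicates, ≥2 experiments.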

human NK1 receptor = human NK1 receptor (Homo sapiens, UniProt P25103); experiment: NK1 receptor binding, [3H]substance P displacement, CHO cell membranes
[2] = second value of the cell pKi NK1/NK3, hNK3 receptor, [3H]SR142801
[3] = first value of the cell pKi NK1/NK3, human NK1 receptor, [3H]substance P
[4] = second value of the cell NK1/NK3, read-out: pKi NK3 (converted)
[5] = first value of the cell NK1/NK3, read-out: pKi NK1 (converted)

human NK1 receptor, sequence (P25103 whole entry): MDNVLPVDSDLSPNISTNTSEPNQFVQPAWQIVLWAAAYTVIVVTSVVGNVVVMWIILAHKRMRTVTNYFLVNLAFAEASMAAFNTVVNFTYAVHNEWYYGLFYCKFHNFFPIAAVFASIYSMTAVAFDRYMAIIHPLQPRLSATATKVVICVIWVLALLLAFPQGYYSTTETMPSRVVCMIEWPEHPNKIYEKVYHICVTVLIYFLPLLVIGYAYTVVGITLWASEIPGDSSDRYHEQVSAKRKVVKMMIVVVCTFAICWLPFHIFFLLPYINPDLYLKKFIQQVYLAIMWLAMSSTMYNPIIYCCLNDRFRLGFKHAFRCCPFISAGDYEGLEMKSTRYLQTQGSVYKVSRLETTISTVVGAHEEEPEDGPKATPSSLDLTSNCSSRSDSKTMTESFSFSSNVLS

| Structure (SMILES) | Ki [1, 2] [nM] | Ki (human NK1 receptor; [3]) [nM] | Ki [1, 4] [nM] | Ki (human NK1 receptor; [5]) [nM] | pKi NK3 ([1]; second value of the cell NK1/NK3) |
| --- | --- | --- | --- | --- | --- |
| Cc1cc(F)ccc1-c1cc(N2[C@@H](CO)CC[C@@H]2CO)ncc1N(C)C(=O)C(C)(C)c1cc(C(F)(F)F)cc(C(F)(F)F)c1 [Example 199, (2R,5R)-N-[6-(2,5-Bis-hydroxymethyl-pyrrolidin-1-yl)-4-(4-fluoro-2-methyl-phenyl)-pyridin-3-yl]-2-(3,5-bis-trifluoromethyl-phenyl)-N-methyl-isobutyramide] | 15.5 | 2.51 | – | – | – |
| CC(=O)N[C@@H]1CCN(c2cc(-c3ccc(F)cc3C)c(N(C)C(=O)C(C)(C)c3cc(C(F)(F)F)cc(C(F)(F)F)c3)cn2)C1 [Example 100, (R)-N-[6-(3-Acetylamino-pyrrolidin-1-yl)-4-(4-fluoro-2-methyl-phenyl)-pyridin-3-yl]-2-(3,5-bis-trifluoromethyl-phenyl)-N-methyl-isobutyramide] | 20 | 1.82 | – | – | – |
| CN(C(=O)C(C)(C)c1cc(C(F)(F)F)cc(C(F)(F)F)c1)c1cnc(N(CCO)CCO)cc1-c1ccc(Cl)cc1Cl [Example 86, N-[6-[Bis-(2-hydroxy-ethyl)-amino]-4-(2,4-dichloro-phenyl)-pyridin-3-yl]-2-(3,5-bis-trifluoromethyl-phenyl)-N-methyl-isobutyramide] | 3.55 | 1.66 | – | – | – |
| CN(C(=O)C(C)(C)c1cc(C(F)(F)F)cc(C(F)(F)F)c1)c1cnc(NCC(C)(C)O)cc1-c1ccccc1Cl [Example 75, 2-(3,5-Bis-trifluoromethyl-phenyl)-N-[4-(2-chloro-phenyl)-6-(2-hydroxy-2-methyl-propylamino)-pyridin-3-yl]-N-methyl-isobutyramide] | 12.3 | 1.7 | – | – | – |
| CN(C(=O)C(C)(C)c1cc(C(F)(F)F)cc(C(F)(F)F)c1)c1cnc(N2CC[C@H](O)[C@H]2CO)cc1-c1ccccc1F [Example 264, (2R,3S)-2-(3,5-Bis-trifluoromethyl-phenyl)-N-[4-(2-fluoro-phenyl)-6-(3-hydroxy-2-hydroxymethyl-pyrrolidin-1-yl)-pyridin-3-yl]-N-methyl-isobutyramide] | – | – | 2.14 | 1.48 | – |
| CN(C(=O)C(C)(C)c1cc(C(F)(F)F)cc(C(F)(F)F)c1)c1cnc(N2CCC(S(C)(=O)=O)C2)cc1-c1ccccc1Cl (racemic) [Example 66, (RS)-2-(3,5-Bis-trifluoromethyl-phenyl)-N-[4-(2-chloro-phenyl)-6-(3-methanesulfonyl-pyrrolidin-1-yl)-pyridin-3-yl]-N-methyl-isobutyramide] | 1.29 | 1.48 | – | – | – |
| Cc1cc(C)cc(C(C)(C)C(=O)N(C)c2cnc(N3CCC[C@H]3CO)cc2-c2ccccc2C)c1 [Example 19, (S)-2-(3,5-Dimethyl-phenyl)-N-[6-(2-hydroxymethyl-pyrrolidin-1-yl)-4-o-tolyl-pyridin-3-yl]-N-methyl-isobutyramide] | 5.13 | 2.95 | – | – | – |
| CN(C(=O)C(C)(C)c1cc(C(F)(F)F)cc(C(F)(F)F)c1)c1cnc(N2CCC[C@H]2CO)cc1-c1ccccc1F [Example 282, (S)-2-(3,5-Bis-trifluoromethyl-phenyl)-N-[4-(2-fluoro-phenyl)-6-(2-hydroxymethyl-pyrrolidin-1-yl)-pyridin-3-yl]-N-methyl-isobutyramide] | – | – | 2.24 | 3.09 | – |
| Cc1ccccc1-c1cc(N2C[C@H](F)C[C@H]2CO)ncc1N(C)C(=O)C(C)(C)c1cc(C(F)(F)F)cc(C(F)(F)F)c1 [Example 301, (2S,4R)-2-(3,5-Bis-trifluoromethyl-phenyl)-N-[6-(4-fluoro-2-hydroxymethyl-pyrrolidin-1-yl)-4-o-tolyl-pyridin-3-yl]-N-methyl-isobutyramide] | – | – | 2.29 | 2.14 | – |
| CN(C(=O)C(C)(C)c1cc(C(F)(F)F)cc(C(F)(F)F)c1)c1cnc(N2CCC[C@H]2CO)cc1-c1ccc(Cl)c(Cl)c1 [Example 286, (S)-2-(3,5-Bis-trifluoromethyl-phenyl)-N-[4-(3,4-dichloro-phenyl)-6-(2-hydroxymethyl-pyrrolidin-1-yl)-pyridin-3-yl]-N-methyl-isobutyramide] | – | – | 3.72 | 1.35 | – |
| CN(C(=O)C(C)(C)c1cc(C(F)(F)F)cc(C(F)(F)F)c1)c1cnc(N2CCC(O)CC2)cc1-c1ccccc1Cl [Example 51, 2-(3,5-bis-trifluoromethyl-phenyl)-N-[4′-(2-chloro-phenyl)-4-hydroxy-3,4,5,6-tetrahydro-2H-[1,2′]bipyridinyl-5′-yl]-N-methyl-isobutyramide] | 28.8 | 0.646 | – | – | – |
| C[C@H](O)CNc1cc(-c2ccccc2Br)c(N(C)C(=O)C(C)(C)c2cc(C(F)(F)F)cc(C(F)(F)F)c2)cn1 [Example 131, (S)-2-(3,5-Bis-trifluoromethyl-phenyl)-N-[4-(2-bromo-phenyl)-6-(2-hydroxy-propylamino)-pyridin-3-yl]-N-methyl-isobutyramide] | 4.27 | 1.07 | – | – | – |
| Cc1ccccc1-c1cc(N2C[C@@H](O)C[C@@H]2CO)ncc1N(C)C(=O)C(C)(C)c1cc(F)cc(C(F)(F)F)c1 (stereo in doubt) [Example 14, (2R,4S)-2-(3-Fluoro-5-trifluoromethyl-phenyl)-N-[6-(4-hydroxy-2-hydroxymethyl-pyrrolidin-1-yl)-4-o-tolyl-pyridin-3-yl]-N-methyl-isobutyramide] | 3.02 | 1.29 | – | – | – |
| CN(C(=O)C(C)(C)c1cc(C(F)(F)F)cc(C(F)(F)F)c1)c1cnc(N2CCC[C@@H]2CO)cc1-c1ccccc1Cl [Example 41, (R)-2-(3,5-Bis-trifluoromethyl-phenyl)-N-[4-(2-chloro-phenyl)-6-(2-hydroxymethyl-pyrrolidin-1-yl)-pyridin-3-yl]-N-methyl-isobutyramide] | 7.59 | 1.07 | – | – | – |
| Cc1c(F)cccc1-c1cc(N(CCO)CCO)ncc1N(C)C(=O)C(C)(C)c1cc(C(F)(F)F)cc(C(F)(F)F)c1 [Example 127, N-[6-[Bis-(2-hydroxy-ethyl)-amino]-4-(3-fluoro-2-methyl-phenyl)-pyridin-3-yl]-2-(3,5-bis-trifluoromethyl-phenyl)-N-methyl-isobutyramide] | 1.51 | 2.19 | – | – | – |
| CC(=O)NC[C@@H]1CCCN1c1cc(-c2ccc(F)cc2C)c(N(C)C(=O)C(C)(C)c2cc(C(F)(F)F)cc(C(F)(F)F)c2)cn1 [Example 302, (S)-N-[6-[2-(Acetylamino-methyl)-pyrrolidin-1-yl]-4-(4-fluoro-2-methyl-phenyl)-pyridin-3-yl]-2-(3,5-bis-trifluoromethyl-phenyl)-N-methyl-isobutyramide] | – | – | 20.4 | 2.51 | – |
| Cc1c(F)cccc1-c1cc(N2C[C@@H](O)C[C@H]2CO)ncc1N(C)C(=O)C(C)(C)c1cc(C(F)(F)F)cc(C(F)(F)F)c1 [Example 249, (2S,4S)-2-(3,5-Bis-trifluoromethyl-phenyl)-N-[4-(3-fluoro-2-methyl-phenyl)-6-(4-hydroxy-2-hydroxymethyl-pyrrolidin-1-yl)-pyridin-3-yl]-N-methyl-isobutyramide] | – | – | 1.02 | 2 | – |
| Cc1cc(F)ccc1-c1cc(N2C[C@@H](F)C[C@H]2CO)ncc1N(C)C(=O)C(C)(C)c1cc(C(F)(F)F)cc(C(F)(F)F)c1 [Example 298, (2S,4S)-2-(3,5-Bis-trifluoromethyl-phenyl)-N-[6-(4-fluoro-2-hydroxymethyl-pyrrolidin-1-yl)-4-(4-fluoro-2-methyl-phenyl)-pyridin-3-yl]-N-methyl-isobutyramide] | – | – | – | 1.55 | 9.15 |
| Cc1ccccc1-c1cc(N2CCC[C@H]2CO)ncc1N(C)C(=O)C(C)(C)c1cc(Cl)cc(Cl)c1 [Example 11, (S)-2-(3,5-Dichloro-phenyl)-N-[6-(2-hydroxymethyl-pyrrolidin-1-yl)-4-o-tolyl-pyridin-3-yl]-N-methyl-isobutyramide] | 1.1 | 1.78 | – | – | – |
| CN(C(=O)C(C)(C)c1cc(C(F)(F)F)cc(C(F)(F)F)c1)c1cnc(NCCO)cc1-c1ccc(F)cc1Cl [Example 69, 2-(3,5-Bis-trifluoromethyl-phenyl)-N-[4-(2-chloro-4-fluoro-phenyl)-6-(2-hydroxy-ethylamino)-pyridin-3-yl]-N-methyl-isobutyramide] | 14.5 | 1.12 | – | – | – |
| CN(C(=O)C(C)(C)c1cc(C(F)(F)F)cc(C(F)(F)F)c1)c1cnc(NCCO)cc1-c1ccc(Cl)cc1Cl [Example 70, 2-(3,5-Bis-trifluoromethyl-phenyl)-N-[4-(2,4-dichloro-phenyl)-6-(2-hydroxy-ethylamino)-pyridin-3-yl]-N-methyl-isobutyramide] | 4.07 | 2 | – | – | – |
| CN(C(=O)C(C)(C)c1cc(C(F)(F)F)cc(C(F)(F)F)c1)c1cnc(N2C[C@H](O)C[C@H]2CO)cc1-c1ccc(F)cc1 [Example 202, (2S,4R)-2-(3,5-Bis-trifluoromethyl-phenyl)-N-[4-(4-fluoro-phenyl)-6-(4-hydroxy-2-hydroxymethyl-pyrrolidin-1-yl)-pyridin-3-yl]-N-methyl-isobutyramide] | 7.41 | 1.2 | – | – | – |

— patent publication US8404708B2, “Dual NK1/NK3 receptor antagonists” (Hoffmann-La Roche Inc., priority 2004, dated 2013)
